Measured values: paper PMC9154192 (PLoS Biology, 2022)
≈ marks a conversion by molar mass, not a printed value. Where “and” joins values, the source holds several entries; their conditions need not be identical. Equal values may be shown once. Read-outs that look alike come from different tables or passages of the source.

How the values were obtained:
in vitro = format: cell-based, murine; details: mouse
Procedure: A549 human pulmonary epithelial cells (KCLB 10185), human embryonic kidney (HEK) 293 cells (KCLB 21573), human THP-1 leukemia cells (KCLB 40202), human neuroblastoma SH-SY5Y cells (KCLB 22266), Murine Raw 264.7 macrophages (KCLB 40071), and L929 murine fibroblasts (KCLB 10001) were purchased from the KCLB (Seoul, Korea). Cytotoxicity testing was performed using the MTT assay and the WST-1 cell viability assay as previously described.

M. tuberculosis H37Ra = assay: microbe, parasite or virus in culture; format: cell-based, Mycobacterium tuberculosis; details: Mycobacterium tuberculosis, H37RA
M. tuberculosis H37Rv = assay: microbe, parasite or virus in culture; format: cell-based, Mycobacterium tuberculosis; details: for MIC: Mycobacterium tuberculosis, H37RV, read-out: MIC; for SI (CC50/MIC): ratio of CC50 for L929 fibroblasts to MIC for strain H37Rv
M. kansasii = assay: microbe, parasite or virus in culture; format: cell-based; details: Mycobacterium kansasii
M. colombiense = assay: microbe, parasite or virus in culture; format: cell-based; details: Mycobacterium colombiense
M. xenopi = assay: microbe, parasite or virus in culture; format: cell-based; details: Mycobacterium xenopi
M. arupense = assay: microbe, parasite or virus in culture; format: cell-based, Mycobacterium arupense; details: Mycolicibacter arupensis
M. gordonae = assay: microbe, parasite or virus in culture; format: cell-based; details: Mycobacterium gordonae
M. fortuitum = assay: microbe, parasite or virus in culture; format: cell-based, Mycobacterium fortuitum; details: Mycolicibacterium fortuitum
M. neoaurum = assay: microbe, parasite or virus in culture; format: cell-based, Mycobacterium neoaurum; details: Mycolicibacterium neoaurum
M. marseiliense = assay: microbe, parasite or virus in culture; format: cell-based; details: Mycobacterium
M. avium = assay: microbe, parasite or virus in culture; format: cell-based; details: Mycobacterium avium
M. bovis = assay: microbe, parasite or virus in culture; format: cell-based; details: Mycobacterium tuberculosis variant bovis
M. bolletii = assay: microbe, parasite or virus in culture; format: cell-based, Mycobacterium bolletii; details: Mycobacteroides abscessus
M. gilvum = assay: microbe, parasite or virus in culture; format: cell-based, Mycobacterium gilvum; details: Mycolicibacterium gilvum
M. marinum = assay: microbe, parasite or virus in culture; format: cell-based; details: Mycobacterium marinum
M. conceptionense = assay: microbe, parasite or virus in culture; format: cell-based, Mycobacterium conceptionense; details: Mycolicibacterium senegalense
M. heraklionease = assay: microbe, parasite or virus in culture; format: cell-based; details: Mycobacterium
M. intracellulare = assay: microbe, parasite or virus in culture; format: cell-based; details: Mycobacterium intracellulare
M. kyorinense = assay: microbe, parasite or virus in culture; format: cell-based; details: Mycobacterium kyorinense
M. szulgai = assay: microbe, parasite or virus in culture; format: cell-based; details: Mycobacterium szulgai
M. chitae = assay: microbe, parasite or virus in culture; format: cell-based, Mycobacterium chitae; details: Mycolicibacterium chitae
M. aubagnense = assay: microbe, parasite or virus in culture; format: cell-based, Mycobacterium aubagnense; details: Mycolicibacterium aubagnense
M. massiliense = assay: microbe, parasite or virus in culture; format: cell-based, Mycobacterium massiliense; details: Mycobacteroides abscessus
M. smegmatis = assay: microbe, parasite or virus in culture; format: cell-based, Mycobacterium smegmatis; details: Mycolicibacterium smegmatis
M. peregrinum = assay: microbe, parasite or virus in culture; format: cell-based, Mycobacterium peregrinum; details: Mycolicibacterium peregrinum
M. goodie = assay: microbe, parasite or virus in culture; format: cell-based; details: Mycobacterium
M. phocaicum = assay: microbe, parasite or virus in culture; format: cell-based, Mycobacterium phocaicum; details: Mycolicibacterium phocaicum
M. abscessus = assay: microbe, parasite or virus in culture; format: cell-based, Mycobacterium abscessus; details: Mycobacteroides abscessus
M. phlei = assay: microbe, parasite or virus in culture; format: cell-based, Mycobacterium phlei; details: Mycolicibacterium phlei
[1] = system: clinically isolated MDR, XDR, and TDR M. tuberculosis strains; assay: microbe, parasite or virus in culture; format: cell-based; details: Mycobacterium tuberculosis
[2] = format: cell-based; details: positive control, absence of S9 mix
intestinal microbiome = assay: Gut microbiome, 16s rRNA gene-based metagenomics analysis of feces; format: in vivo, BALB/c mice; details: 30 mg/kg oral once a day for 7 days, BALB/c mice, feces
Procedure: Six-week-old BALB/c female mice were used for this study (6 mice for each group). Each drug was administered orally at 30 mg/kg once daily for 7 days. Stool was collected, and 16 rRNA gene-based metagenomics analysis was performed. Corn oil was used as the vehicle. The drug-free group received corn oil only. This animal experiment was conducted with the approval of the IACUC of the Soonchunhyang University (approval number: SCH21-0011). Microbiome analysis of collected feces was carried out as previously described with some modifications. Total DNA was extracted from the stool using the QIAamp DNA stool mini kit (Qiagen, Germany) after mechanical disruption using lysing matrix B tubes (MP Biomedicals, USA). V4 region of 16S RNA gene was amplified from extracted DNA with the following primers: forward primer ([…]) and reverse primer ([…]). PCR was performed using the Kappa HiFi hot start kit (KAPA Biosystems, USA) for 16s gene amplification and library preparation. A dsDNA HS assay kit and Qubit 4 fluorimeter (Invitrogen, USA) were used for DNA quantification. After each step, quality was checked using Agilent High Sensitivity DNA Kit and Agilent Bioanalyzer 2100 (Agilent Technologies, USA). Clean-up was performed using AMPure XP beads (Beckman Coulter, UK). The metagenomic library was prepared using a Nextera XT DNA Library Prep Kit (Illumina, USA) and loaded into an iSeq-100 reagent cartridge (Illumina, USA) together with a PhiX Control library (Illumina, USA). A 300-bp paired-end sequencing was performed on an iSeq-100 platform (Illumina, USA). Sequencing data were analyzed using the EzBioCloud server (Chunlab, Korea).

CCCCOc1ccc2cc(C(=O)OC)c3cc(OC)c(OC)cc3c2c1 [DPGA10]
CC50 (in vitro; L929, MTT assay (Table S1)): 21.5 µg/mL (≈ 58.4 µM)
CC50 (in vitro; RAW, MTT assay (Table S1)): > 100 µg/mL
MIC (M. tuberculosis H37Ra): > 100 µg/mL
MIC (M. tuberculosis H37Rv): > 100 µg/mL
SI (CC50/MIC) (M. tuberculosis H37Rv): <0.2

CCCCOc1ccc2cc(CO)c3cc(OC)c(OC)cc3c2c1 [DPGA11]
CC50 (in vitro; L929, MTT assay (Table S1)): 73.7 µg/mL (≈ 216 µM)
CC50 (in vitro; RAW, MTT assay (Table S1)): > 100 µg/mL
MIC (M. tuberculosis H37Ra): > 100 µg/mL
MIC (M. tuberculosis H37Rv): > 100 µg/mL
SI (CC50/MIC) (M. tuberculosis H37Rv): <0.7

CC[C@@H](CO)NCCN[C@@H](CC)CO [EMB, ethambutol]
MIC (M. kansasii): 1.6 µg/mL (≈ 7.83 µM)
MIC (M. colombiense): 6.3 µg/mL (≈ 30.8 µM)
MIC (M. xenopi): 25 µg/mL (≈ 122 µM)
MIC (M. arupense): 0.4 µg/mL (≈ 1.96 µM)
MIC (M. gordonae): > 100 µg/mL
MIC (M. fortuitum): 12.5 µg/mL (≈ 61.2 µM)
MIC (M. neoaurum): 6.3 µg/mL (≈ 30.8 µM)
MIC (M. marseiliense): 100 µg/mL (≈ 489 µM)
MIC (M. avium): 50 µg/mL (≈ 245 µM)
MIC (M. bovis): 1.6 µg/mL (≈ 7.83 µM)
MIC (M. bolletii): > 100 µg/mL
MIC (M. gilvum): 12.5 µg/mL (≈ 61.2 µM)
MIC (M. marinum): 3.1 µg/mL (≈ 15.2 µM)
MIC (M. conceptionense): 50 µg/mL (≈ 245 µM)
MIC (M. heraklionease): 100 µg/mL (≈ 489 µM)
MIC (M. intracellulare): 3.1 µg/mL (≈ 15.2 µM)
MIC (M. kyorinense): 50 µg/mL (≈ 245 µM)
MIC (M. szulgai): 3.1 µg/mL (≈ 15.2 µM)
MIC (M. chitae): 0.2 µg/mL (≈ 0.979 µM)
MIC (M. aubagnense): 50 µg/mL (≈ 245 µM)
MIC (M. tuberculosis H37Rv): 1.6 µg/mL (≈ 7.83 µM)
MIC (M. massiliense): 100 µg/mL (≈ 489 µM)
MIC (M. smegmatis): 0.8 µg/mL (≈ 3.92 µM)
MIC (M. peregrinum): 3.1 µg/mL (≈ 15.2 µM)
MIC (M. goodie): 0.8 µg/mL (≈ 3.92 µM)
MIC (M. phocaicum): 0.4 µg/mL (≈ 1.96 µM)
MIC (M. abscessus): 100 µg/mL (≈ 489 µM)
MIC (M. phlei): 1.6 µg/mL (≈ 7.83 µM)
MIC ([1]; TDR-1): 6.3 µg/mL (≈ 30.8 µM)
MIC ([1]; TDR-2): 6.3 µg/mL (≈ 30.8 µM)
MIC ([1]; TDR-3): 6.3 µg/mL (≈ 30.8 µM)

COC(=O)[C@H]1CCC(=O)N1Cc1cc2ccc(OC)cc2c2cc(OC)c(OC)cc12 [PP1R]
MIC (M. tuberculosis H37Ra): > 100 µg/mL
MIC (M. tuberculosis H37Rv): > 100 µg/mL

CCCCOc1ccc2cc(CN3C(=O)CC[C@@H]3C(=O)OC)c3cc(OC)c(OC)cc3c2c1 [PP2R]
MIC (M. tuberculosis H37Ra): > 100 µg/mL
MIC (M. tuberculosis H37Rv): > 100 µg/mL

COC(=O)[C@H]1CCC(=O)N1Cc1cc2ccc(OCc3ccccc3)cc2c2cc(OC)c(OC)cc12 [PP3R, Methyl (R)-1-{[3-(Benzyloxy)-6,7-dimethoxy-9-phenanthryl]methyl}-5-oxopyrrolidine-2-carboxylate]
MIC (M. tuberculosis H37Ra): > 100 µg/mL
MIC (M. tuberculosis H37Rv): > 100 µg/mL

NC(=O)c1cnccn1 [PZA, pyrazinamide]
MIC (M. kansasii): > 100 µg/mL
MIC (M. colombiense): > 100 µg/mL
MIC (M. xenopi): > 100 µg/mL
MIC (M. arupense): > 100 µg/mL
MIC (M. gordonae): > 100 µg/mL
MIC (M. fortuitum): > 100 µg/mL
MIC (M. neoaurum): > 100 µg/mL
MIC (M. marseiliense): > 100 µg/mL
MIC (M. avium): > 100 µg/mL
MIC (M. bovis): > 100 µg/mL
MIC (M. bolletii): > 100 µg/mL
MIC (M. gilvum): > 100 µg/mL
MIC (M. marinum): > 100 µg/mL
MIC (M. conceptionense): > 100 µg/mL
MIC (M. heraklionease): > 100 µg/mL
MIC (M. intracellulare): > 100 µg/mL
MIC (M. kyorinense): > 100 µg/mL
MIC (M. szulgai): > 100 µg/mL
MIC (M. chitae): > 100 µg/mL
MIC (M. aubagnense): > 100 µg/mL
MIC (M. tuberculosis H37Rv): > 100 µg/mL
MIC (M. massiliense): > 100 µg/mL
MIC (M. smegmatis): > 100 µg/mL
MIC (M. peregrinum): > 100 µg/mL
MIC (M. goodie): > 100 µg/mL
MIC (M. phocaicum): > 100 µg/mL
MIC (M. abscessus): > 100 µg/mL
MIC (M. phlei): > 100 µg/mL
MIC [1]: > 100 µg/mL
MIC ([1]; TDR-1): > 100 µg/mL
MIC ([1]; TDR-2): > 100 µg/mL
MIC ([1]; TDR-3): > 100 µg/mL

[N-]=[N+]=[N-].[Na+] [SA]
Individual revertant colony counts ([2]; TA100, 1.5 μg/plate): 734 colonies per plate and 732 colonies per plate
Mean revertant colonies ([2]; TA100, 1.5 μg/plate): 733 colonies per plate
Individual revertant colony counts ([2]; TA1535, 1.5 μg/plate): 588 colonies per plate and 535 colonies per plate
Mean revertant colonies ([2]; TA1535, 1.5 μg/plate): 562 colonies per plate

CN[C@H](CC(C)C)C(=O)N[C@H]1C(=O)N[C@@H](CC(N)=O)C(=O)N[C@H]2C(=O)N[C@H]3C(=O)N[C@H](C(=O)N[C@H](C(=O)O)c4cc(O)cc(O)c4-c4cc3ccc4O)[C@H](O)c3ccc(c(Cl)c3)Oc3cc2cc(c3O[C@@H]2O[C@H](CO)[C@@H](O)[C@H](O)[C@H]2O[C@H]2C[C@](C)(N)[C@H](O)[C@H](C)O2)Oc2ccc(cc2Cl)[C@H]1O [VAN, vancomycin]
beta set-significance analysis, pair-wise comparison of gut microbiome (intestinal microbiome): significant
difference in phylum or class level taxa compared to drug-free group (intestinal microbiome): significant differences
phylogenetic diversity compared to drug-free control group (intestinal microbiome): significantly decreased
